Source: patent publication US8906825B2, “Herbicidal compositions comprising 4-amino-3-chloro-5-fluoro-6-(4-chloro-2-fluoro-3-methoxyphenyl) pyridine-2-carboxylic acid or a derivative thereof and triazolopyrimidine sulfonamides” (Dow AgroSciences LLC, priority 2012, dated 2014)

What was measured:
Format in all cases: in vivo
[1] = tested on: LEFCH (Leptochloa chinensis (L.) Nees, Chinese sprangletop); test: In-water applied herbicidal mixtures, transplanted paddy rice, greenhouse (Example II)
Protocol: (§1) Weed seeds or nutlets of the desired test plant species were planted in puddled soil (mud) prepared by mixing a shredded, non-sterilized mineral soil (50.5 percent silt, 25.5 percent clay, and 24 percent sand, with a pH of about 7.6 and an organic matter content of about 2.9 percent) and water at a 1:1 volumetric ratio. The prepared mud was dispensed in 365 mL aliquots into 16-ounce (oz.) non-perforated plastic pots with a surface area of 86.59 square centimeters (cm^2) leaving a headspace of 3 centimeters in each pot. Mud was allowed to dry overnight prior to planting or transplanting. Rice seeds were planted in Sun Gro MetroMix® 306 planting mixture, which typically has a pH of 6.0 to 6.8 and an organic matter content of about 30 percent, in plastic plug trays. Seedlings at the second or third leaf stage of growth were transplanted into 840 mL of mud contained in 32-oz. non-perforated plastic pots with a surface area of 86.59 cm^2 4 days prior to herbicide application. The paddy was created by filling the headspace of the pots with 2.5 to 3 cm of water. When required to ensure good germination and healthy plants, a fungicide treatment and/or other chemical or physical treatment was applied. The plants were grown for 4-22 days in a greenhouse with an approximate 14 h photoperiod which was maintained at about 29′C during the day and about 26° C. during the night. Nutrients were added as Osmocote® (19:6:12, N:P:K+minor nutrients) at 2 g per 16-oz. pot and 4 g per 32-oz. pot. Water was added on a regular basis to maintain the paddy flood, and supplemental lighting was provided with overhead metal halide 1000-Watt lamps as necessary. The plants were employed for testing when they reached the first through fourth true leaf stage.
(§2) Treatments consisted of the acid or esters of 4-amino-3-chloro-5-fluoro-6-(4-chloro-2-fluoro-3-methoxy-phenyl)pyridine-2-carboxylic acid (compound A) each formulated as an SC and various herbicidal components alone and in combination. Forms of compound A were applied on an acid equivalent basis.
(§3) Other herbicidal components were applied on an active ingredient basis and included acetolactate synthase (ALS)-inhibiting herbicides (sulfonamide chemical class) penoxsulam formulated as Grasp® SC (GF-443), diclosulam formulated as Strongarm®, and cloransulam-methyl formulated as FirstRate®.
(§4) Treatment requirements for each compound or herbicidal component were calculated based upon the rates being tested, the concentration of active ingredient or acid equivalent in the formulation, an application volume of 2 mL per component per pot, and an application area of 86.59 cm^2 per pot.
(§5) For formulated compounds, a measured amount was placed in an individual 100 or 200 mL glass vial and was dissolved in a volume of 1.25% (v/v) Agri-Dex® crop oil concentrate to obtain each application solution.
(§6) Applications were made by injecting with a pipetter appropriate amounts of the application solutions, individually and sequentially, into the aqueous layer of the paddy. Control plants were treated in the same manner with the solvent blank. Applications were made so that all treated plant material received the same concentrations of acetone and crop oil concentrate.
(§7) The treated plants and control plants were placed in a greenhouse as described above and water was added as needed to maintain a paddy flood. After approximately 3 weeks the condition of the test plants as compared with that of the untreated plants was determined visually and scored on a scale of 0 to 100 percent where 0 corresponds to no injury or growth inhibition and 100 corresponds to complete kill.
(§8) Colby's equation was used to determine the herbicidal effects expected from the mixtures (Colby, S. R. 1967. Calculation of the synergistic and antagonistic response of herbicide combinations. Weeds 15:20-22.).
(§9) The following equation was used to calculate the expected activity of mixtures containing two active ingredients, A and B: Expected=A+B−(A×B/100)

SCPMA (sea clubrush) = test: as above
Protocol: as §1, §2, §3, §4, §5, §6, §7, §8, §9

[2] = tested on: BRAPP (Brachiaria platyphylla (Griseb.) Nash, broadleaf signalgrass); test: Postemergence field trials in direct-seeded rice, United States (Example IV); details: foliar
Protocol: (§10) Multiple post-emergence field trials were conducted under field conditions in Tolima, Colombia; Thessaloniki, Greece; Ottobiano and Copiano, Italy; Greenville, Miss. and Eagle Lake, Tex., USA; and water-injected treatments were tested at Ryugasaki, Japan. Trial sites were located in commercially grown fields of direct-seeded rice (Oryza sativa) using standard herbicide small plot research methodology, except in Japan where transplanted rice was utilized for the field trial. Post-emergence trial plot size varied from 2 to 3 meter (m)×5 to 8 m (width×length) with 4 replicates per treatment. Water-injected trial plot size was 2×2 m with 3 replicates per treatment. The rice crop was grown using normal cultural practices for fertilization, seeding, watering, flooding and maintenance to ensure good growth of the crop and the weeds.
(§11) All treatments in the post-emergence field trials were applied using a backpack compressed air/gas sprayer with flat fan nozzles (80° or 110°) calibrated to apply 187 to 300 L/ha spray volume at approximately 200-400 kPa nozzle pressure. In Japan, treatments were water-injected applied where the specified amount of commercial product was mixed in 100 mls of water per replicate and applied directly into 3 cm deep water containing the crop and weeds. Treatments consisted of the benzyl ester of 4-amino-3-chloro-5-fluoro-6-(4-chloro-2-fluoro-3-methoxy-phenyl)pyridine-2-carboxylic acid (Compound A), formulated as an SC (suspension concentrate), and various herbicidal components alone and in combination.
(§12) Commercially available products of penoxsulam (Viper 20OD® (Europe), Grasp 240SC® (USA), and Wideattack 37.5SC® (Japan)) were mixed in water at appropriate formulated product rates to achieve the desired rates based on a unit area of application (hectare) to achieve the desired rates as shown. Treatments were rated at 15 to 56 days after application (DAA) as compared to the untreated control plants. Visual weed control was scored on a scale of 0 to 100 percent where 0 corresponds to no injury and 100 corresponds to complete kill.
(§13) All treatment results, both for the single product and mixtures, are an average of 3 to 4 replicates. The trial sites had naturally occurring populations of weeds. The weed spectrum included, but was not limited to, broadleaf signalgrass (Brachiaria platyphylla (Griseb.) Nash or Urochloa platyphylla (Nash) R.D. Webster, BRAPP), smallflower umbrellaplant (Cyperus difformis L., CYPDI), yellow nutsedge (Cyperus esculentus L., CYPES), multiple Echinochloa species in the same field (ECHSS) in Italy (mixed ECHSS biotypes), Amazon sprangletop (Leptochloa panicoides (J. Presl) A.S. Hitchc., LEFPA), and Japanese bulrush (Schoenoplectus juncoides (Roxb.) Palla, SCPJU).

[3] = tested on: LEFPA (Leptochloa panicoides(Presl.) Hitchc., Amazon sprangletop); test: as above; details: foliar
Protocol: as §10, §11, §12, §13

[4] = tested on: SCPJU (Schoenoplectus juncoides Roxb., Japanese bulrush); test: Water-injected field trial in transplanted rice, Japan (Example IV)
Protocol: as §10, §11
as §12, with “kill. […]” for “kill.”

COc1cnc(OC)n2nc(NS(=O)(=O)c3c(OCC(F)F)cccc3C(F)(F)F)nc12 [Penoxsulam, 2-(2,2-difluoroethoxy)-N-(5,8-dimethoxy[1,2,4]triazolo[1,5-c]pyrimidin-2-yl)-6-(trifluoromethyl)benzenesulfonamide, reference compound]
Visual Weed Control (%) - 25 DAA LEFCH Obs ([1]; Penoxsulam 17.5 gai/ha, Table 11): 0% | Visual Weed Control (%) - 25 DAA LEFCH Obs ([1]; Penoxsulam 35 gai/ha, Table 10): 40% | Visual Weed Control (%) - 25 DAA LEFCH Obs ([1]; Penoxsulam 35 gai/ha, Table 11): 40% | Visual Weed Control (%) - 21 DAA SCPMA Obs (SCPMA (sea clubrush); Penoxsulam 10 gai/ha): 70% | Visual Weed Control (%) - 21 DAA SCPMA Obs (SCPMA (sea clubrush); Penoxsulam 20 gai/ha): 88% | Visual Weed Control (%) - 21 DAA SCPMA Obs (SCPMA (sea clubrush); Penoxsulam 40 gai/ha): 95% | Visual Weed Control (%) - 15-19 DAA BRAPP Obs ([2]; Penoxsulam 40 gai/ha): 35% | Visual Weed Control (%) - 15-19 DAA LEFPA Obs ([3]; Penoxsulam 40 gai/ha): 16% | Visual Weed Control (%) - 28 DAA SCPJU Obs ([4]; Penoxsulam 50 gai/ha): 20%

COc1c(Cl)ccc(-c2nc(C(=O)OCc3ccccc3)c(Cl)c(N)c2F)c1F [Compound A Benzyl Ester, benzyl ester of 4-amino-3-chloro-5-fluoro-6-(4-chloro-2-fluoro-3-methoxy-phenyl)pyridine-2-carboxylic acid]
Visual Weed Control (%) - 25 DAA LEFCH Obs ([1]; Compound A Benzyl Ester 8.75 gae/ha): 50% | Visual Weed Control (%) - 25 DAA LEFCH Obs ([1]; Compound A Benzyl Ester 17.5 gae/ha): 90% | Visual Weed Control (%) - 21 DAA SCPMA Obs (SCPMA (sea clubrush); Compound A Benzyl Ester 48 gae/ha): 0% | Visual Weed Control (%) - 21 DAA SCPMA Obs (SCPMA (sea clubrush); Compound A Benzyl Ester 96 gae/ha): 0% | Visual Weed Control (%) - 15-19 DAA BRAPP Obs ([2]; Compound A Benzyl Ester 32 gae/ha): 62% | Visual Weed Control (%) - 15-19 DAA LEFPA Obs ([3]; Compound A Benzyl Ester 24 gae/ha): 53% | Visual Weed Control (%) - 28 DAA SCPJU Obs ([4]; Compound A Benzyl Ester 150 gae/ha): 22% | Visual Weed Control (%) - 28 DAA SCPJU Obs ([4]; Compound A Benzyl Ester 200 gae/ha): 25%
